Entries after “also recorded” stand apart in the source; their conditions may differ.
Key:
[1] = tested on: mouse embryonic fibroblasts MEF; assay: FACS uptake of BODIPY FL conjugates (Example 4); assay type: cell-based; details: 200 nM, 5 min
Protocol: FIG. 4B: Conjugate compounds coupled to BODIPY FL were tested for uptake using 200 nM each conjugate and 5 minute incubation with mouse embryonic fibroblasts MEF. Mean fluorescent intensities (MFI). 1,000 cells were sorted by FACS.
Fibroblasts are ubiquitous mesenchymal cells that are thought to play important roles in wound repair and healing, and serve as reservoirs of multipotent progenitors capable of repopulating depleted cell compartments. Primary mouse embryonic fibroblast (MEF) cultures consist of highly heterogeneous populations of distinct cell types. Singhal, P. K., et al., 2016. MEF cells have a limited growth capacity and on prolonged passaging spontaneously immortalize at a low frequency. In contrast to transformation of primary MEF cells that requires the presence of two cooperating oncogenes, immortalised MEF cells can be transformed by a single oncogene (Ras) resulting in a loss of contact inhibition, anchorage-independent growth, and tumour formation in nude mice. Studies of MEF cells have played an important role in the elucidation of the molecular mechanisms underlying cellular immortalization, transformation, and tumorigenesis. Additionally, utilization of MEF cells disrupted for specific genes has provided a powerful tool to analyse the genetic regulation of these cellular processes. Sun and Taneja, 2007. […]

Jurkat cells = assay: Time course of uptake by FACS (Example 6); assay type: cell-based, human; details: 200 nM
Protocol: FIG. 6: Time course of uptake for 124, 126, and 132 conjugate compounds. Tests were performed using 200 nM each conjugate and 5, 30 and 60 min incubation with Jurkat cells (immortalized T lymphocytes). Mean fluorescent intensities (MFI). 1,200 cells sorted by FACS. Bars represent mean±SD. Results represents a single experiment done in triplicate.
Materials and methods: Jurkat cells were diluted on RPMI media (supplemented with 10% FBS+1% penicillin-streptomycin) to 400 cells/μL. 5 μL of […] stock solutions in DMSO from 124, 126 and 132 were diluted with 1245 μL of RPMI media (supplemented with 10% FBS+1% penicillin-streptomycin) to give a 400 nM solution. 250 μL of cell suspensions were then added to each well in a 96 well plate and 250 μL of conjugate solutions (giving a 200 nM final concentration). 250 μL of media only was added to the DMSO control wells. Incubation was carried out for 5, 30 and 60 minutes at 37 °C in triplicate wells for each compound and time point.

[2] = tested on: NZM40 (NRAS Q16H) melanoma cell line; assay: Sulforhodamine B (SRB) assay of proliferation (Example 7); assay type: cell-based, human; details: 1 μM, 72 h
Protocol: FIG. 7: The 124 conjugate was tested for toxicity using 1 μM final concentration and 72 hour incubation with melanoma cell line NZM40 (NRAS Q16H mutant metastatic melanoma). Cell densities were calculated according with sulforhodamine B assay (SRB assay), absorbance at 515 nm. Cells images of DMSO control and 124 were taken at 24, 48 and 72 h through brightfield using conventional microscope. Results represents a single experiment done in a single sample.
Materials and methods: NZM40 cell line is described above. 1×10^6 NZM40 cells diluted in MEMα media were added to 2×10 cm plates and left to settle for 24 hours. After 24 hour settle period, media was removed from cells and 9900 μL fresh MEMα media added to each plate. 100 μL of DMSO were added to control plate and 100 μL [100 μM 124 in DMSO] were added to treatment plate to afford a final concentration of 1 μM 124. Cells were incubated at 37 °C and 5% 02 for 72 hours and cell images were taken every 24 hours. After 72 hour incubation, sulforhodamine B (SRB) assay was performed to compare final cell density. For this, 2.5 mL of cold 50% (w/v) TCA were added to DMSO (control) and 124 plates. Cells were incubated for 1 hour in TCA at 4 °C. […] The 96 well plate was analysed on plate reader, at wavelength of 515 nm. Results represent the absorbance of cells without dilution, 1:2 dilution, 1:4 dilution and 1:8 dilution.

monocytes = assay: FACS uptake of BODIPY FL conjugates in PBMCs (Example 3); assay type: cell-based, human; details: 135 nM
Protocol: (§1) FIG. 3A. Conjugate compounds coupled to BODIPY FL were tested for uptake using 135 nM each conjugate and 4.5 minute incubation with human lymphocytes, monocytes and neutrophils (from a healthy donor). Mean fluorescent intensities (MFI). 1,000 cells (lymphocytes), 500 cells (monocytes) and 250 cells (neutrophils) sorted by FACS. Bars represent mean±SD. Results represent a single experiment done in duplicate.
(§2) In addition to this, 25 mL of full blood was collected from a healthy donor in lithium-heparin vacutainer. Peripheral blood mononuclear cells (PBMCs) were collected after ficoll separation. PBMCs then were centrifuge at 400 g for 5 minutes. Supernatant was removed from the cells and resuspended with 20 mL of HBSS with a final concentration of 417,500 cells/mL. Then, 479 μL of cells suspension were poured into Eppendorf tube and 1000 μL of 200 nM drug solution in HBSS were added to afford 135 nM final drug concentration, incubated at 37 °C for 5 minutes. After incubation time, PBMCs were centrifuged at 400 g for 5 minutes. Supernatant was removed from the cells and pellet resuspended with 200 μL of HBSS. Suspension was transferred to 96 well-plate and run on FACS machine, approximately 1,000-250 cells analysed. The FACS results output represented the mean of the fluorescence intensities (in arbitrary units) measured for cells sorted in every sample.

neutrophils = assay: as above; assay type: cell-based, human; details: 135 nM
Protocol: as §1, §2

Row | Structure (SMILES) | uptake (fluorescent intensities) [1] | incubation time to saturation point (Jurkat cells) [min] | uptake, in words (Jurkat cells; 5 to 60 minutes) | fluorescent intensity compared to 126 and 132 (Jurkat cells; 5 minutes) | fluorescent intensity compared to 126 and 132 (Jurkat cells; 30 minutes) | times greater fluorescence than 126 and 132 (Jurkat cells; 60 minutes) [times] | effect on proliferation [2] | morphology under microscope [2] | targeting / fluorescence intensities (monocytes) | targeting / fluorescence intensities (neutrophils)
1 | CC1=CC(C)=[N+]2C1=Cc1ccc(CCCn3cc(CCNC(=O)/C=C/NC(=O)[C@H](O)C(C)(C)CO)nn3)n1[B-]2(F)F [Compound 124] | highest uptake; also recorded: showed uptake | ≤ 30 | increased between 5 and 30 minutes; also recorded: selective uptake | double | six times greater | 6 | comparable proliferation to DMSO control cells; also recorded: no significant difference on proliferation; also recorded: little to no effect on proliferation | do not exhibit significant changes on morphology |  | 
2 | CC1=CC(C)=[N+]2C1=Cc1ccc(CCCn3cc(CCNC(=O)/C=C/NC(=O)[C@@H]4OC(C)(C)OCC4(C)C)nn3)n1[B-]2(F)F [Compound 125, (R,E)-N-((((3-[4,4-difluoro-5,7-dimethyl-4-bora-3a,4a-diaza-s-indacene-3-yl]propyl)-1H-1,2,3-triazol-4-yl)eth-ylamino)-3-oxoprop-1-enyl)-2,2,5,5-tetramethyl-1,3-dioxane-4-carboxamide] |  |  |  |  |  |  |  |  | showed targeting | showed targeting

From patent US20260364186A1, “Chemical Conjugates, Compositions, and Methods of Preparation and Use Thereof” (Transfection Holdings Limited, priority 2022, published 2026)
